Source: patent publication US9012431B2, “Boron-containing small molecules as anti-inflammatory agents” (Anacor Pharmaceuticals, Inc., priority 2008, dated 2015)
Structures can show the parent of a compound that is named as a salt.

Assays:
[1] = system: TNF-α; experiment: Cytokine assay, TNF-α release from PBMC; assay type: cell-based; conditions: 1 μg/mL LPS; for IC50: supernatant at 24 hours
Experimental: (§1) The ability of the compounds described herein to inhibit pro-inflammatory cytokines or phsophodiesterases were tested.
(§2) Frozen human peripheral blood mononucleocytes (PBMC) were thawed and centrifuged. Cryopreservation media was aspirated off of the cell pellet, and the cells were resuspended in fresh culture media (CM) comprising RPMI 1640 and 10% FBS in 96 well plates. Test article was dissolved in DMSO to form a 10 mM sample (DMSO, 100%). The 10 mM samples were diluted to 100 μM in CM (DMSO, 1%), then further diluted to 10, 1, 0.1, 0.01 μM in 200 μL of CM (n=3). […] IL-23 was assayed using a commercial ELISA kit (R&D Systems).

[2] = system: IL-2; experiment: Cytokine assay, IL-2 release from PBMC; assay type: cell-based; conditions: human PBMC, 20 ug/mL PHA; for IC50: supernatant at 24 hours
Experimental: as §1, §2

[3] = system: IFN-γ; experiment: Cytokine assay, IFN-γ release from PBMC; assay type: cell-based; conditions: human PBMC, 20 ug/mL PHA; for IC50: supernatant at 24 hours
Experimental: as §1, §2

[4] = system: IL-5; experiment: Cytokine assay, IL-5 release from PBMC; assay type: cell-based; conditions: human PBMC, 20 ug/mL PHA; for IC50: supernatant at 48 hours
Experimental: as §1, §2

[5] = system: IL-10; experiment: Cytokine assay, IL-10 release from PBMC; assay type: cell-based; conditions: human PBMC, 20 ug/mL PHA; for IC50: supernatant at 48 hours
Experimental: as §1, §2

[6] = system: T1, PDE4 partially purified from human U-937 myeloid leukemia cells; experiment: PDE4 Assay (enzyme from U-937 cells, [3H]cAMP); assay type: biochemical; conditions: PDE4 from U-937 cells, Tris buffer pH 7.5, 20 minutes at 25° C.
T1 construct: PDE4 partially purified from human U-937 myeloid leukemia cells was used
Experimental: Test article and/or vehicle was incubated with 0.2 mg enzyme and 1 mM cAMP containing 0.01 mM [3H]cAMP in Tris buffer pH 7.5 for 20 minutes at 25° C. The reaction was terminated by boiling for 2 minutes and the resulting AMP is converted to adenosine by addition of 10 mg/ml snake venom nucleotidase and further incubation at 37° C. for 10 minutes. Unhydrolyzed cAMP is bound to AG1-X2 resin, and remaining [3H]Adenosine in the aqueous phase is quantitated by scintillation counting.

Row | SMILES | IC50 ([1]; Homo sapiens, PBMC, 24 h) | IC50 [2] | IC50 [3] | IC50 [4] | IC50 [5] | IC50 [6] | inhibition at 10 µM ([3]; 24 hours, 10 μM) | IC50 ([1]; human PBMC, hydrochloride) | inhibition at 10 µM ([1]; human PBMC, 24 hours, 10 μM) | inhibition at 10 µM ([2]; 24 hours, 10 μM) | inhibition at 10 µM ([4]; 48 hours, 10 μM) | inhibition at 10 µM ([5]; 48 hours, 10 μM)
1 | N#Cc1cnc(Oc2ccc3c(c2)COB3O)c(O)c1 [D123, 5-Hydroxy-6-(1-hydroxy-1,3-dihydro-benzo[c][1,2]oxaborol-5-yloxy)-nicotinonitrile] | < 1 µM | < 1 µM | < 1 µM | 1 to 4 µM | 1 to 4 µM | < 1 µM | – | – | – | – | – | –
2 | N#Cc1ccc(NCCO)nc1Oc1ccc2c(c1)COB2O [D106, 2-(1-Hydroxy-1,3-dihydro-benzo[c][1,2]oxaborol-5-yloxy)-6-(2-hydroxy-ethylamino)-nicotinonitrile] | < 1 µM | < 1 µM | < 1 µM | < 1 µM | 4 to 10 µM | < 1 µM | – | – | – | – | – | –
3 | N#Cc1ccc(Oc2ccc3c(c2)COB3O)nc1N [D130, 2-amino-6-(1-hydroxy-1,3-dihydro-benzo[c][1,2]oxaborol-5-yloxy)-nicotinonitrile] | < 1 µM | < 1 µM | < 1 µM | < 1 µM | < 1 µM | < 1 µM | – | – | – | – | – | –
4 | COc1nc(Oc2ccc3c(c2)COB3O)ncc1C#N [D116, 2-(1-Hydroxy-1,3-dihydro-benzo[c][1,2]oxaborol-5-yloxy)-4-methoxy-pyrimidine-5-carbonitrile] | < 1 µM | < 1 µM | < 1 µM | < 1 µM | 1 to 4 µM | < 1 µM | – | – | – | – | – | –
5 | CCOC(=O)c1cc(F)c(Oc2ccc3c(c2)COB3O)c(F)c1 [D56, 5-(2,6-Difluoro-4-ethoxycarbonylphenoxy)-1-hydroxy-2,1-benzoxaborole] | > 10 µM | 4 to 10 µM | > 10 µM | > 10 µM | > 10 µM | 1 to 4 µM | – | – | – | – | – | –
6 | Cc1cc(C#N)ccc1Oc1ccc2c(c1)COB2O [D85, 3-methyl-4-(1-hydroxy-1,3-dihydrobenzo[c][1,2]oxaborol-5-yloxy)benzonitrile] | < 1 µM | < 1 µM | < 1 µM | < 1 µM | 1 to 4 µM | < 1 µM | – | – | – | – | – | –
7 | CC(C)OC(=O)c1ccc(Oc2ccc3c(c2)COB3O)c(F)c1 [D55, 5-(2-Fluoro-4-isopropyloxycarbonylphenoxy)-1-hydroxy-2,1-benzoxaborole] | 4 to 10 µM | < 1 µM | < 1 µM | 1 to 4 µM | 4 to 10 µM | < 1 µM | – | – | – | – | – | –
8 | CC(=O)OCCOc1nc(Oc2ccc3c(c2)COB3O)ccc1C#N [D126, 2-[3-cyano-6-(1-hydroxy-1,3-dihydro-benzo[c][1,2]oxaborol-5-yloxy)-pyridin-2-yloxy]-ethyl acetate] | < 1 µM | < 1 µM | < 1 µM | < 1 µM | < 1 µM | < 1 µM | – | – | – | – | – | –
9 | O=C(O)c1ccc(Oc2ccc3c(c2)COB3O)cc1 [C38, 4-(1-hydroxy-1,3-dihydro-benzo[c][1,2]oxaborol-5-yloxy)-benzoic acid] | > 10 µM | > 10 µM | > 10 µM | > 10 µM | > 10 µM | 4 to 10 µM | – | – | – | – | – | –
10 | CCOC(=O)c1ccc(Oc2ccc3c(c2)COB3O)cc1Cl [D57, 5-(3-Chloro-4-ethoxycarbonylphenoxy)-1-hydroxy-2,1-benzoxaborole] | 4 to 10 µM | < 1 µM | 1 to 4 µM | < 1 µM | > 10 µM | < 1 µM | – | – | – | – | – | –
11 | CCN(CC)C(=O)COc1cc(C#N)ccc1Oc1ccc2c(c1)COB2O [D28, 2-(5-cyano-2-(1-hydroxy-1,3-dihydrobenzo[c][1,2]oxaborol-5-yloxy)phenoxy)-N,N-diethylacetamide] | < 1 µM | < 1 µM | < 1 µM | < 1 µM | 1 to 4 µM | < 1 µM | – | – | – | – | – | –
12 | N#Cc1ccc(Oc2ccc3c(c2)COB3O)cc1Cl [D2, 5-(3-Chloro-4-cyanophenoxy)-1-hydroxy-2,1-benzoxaborole] | < 1 µM | < 1 µM | < 1 µM | < 1 µM | > 10 µM | < 1 µM | – | – | – | – | – | –
13 | COc1ccc(Oc2ccc3c(c2)B(O)OC3)cc1 [C31, 6-(4-Methoxyphenoxy)-1,3-dihydro-1-hydroxy-2,1-benzoxaborole] | > 10 µM | > 10 µM | – | > 10 µM | > 10 µM | 4 to 10 µM | 30 to 60% | – | – | – | – | –
14 | N#Cc1ccc(Oc2ccc3c(c2)COB3O)nc1OCC(F)F [D127, 2-(2,2-Difluoro-ethoxy)-6-(1-hydroxy-1,3-dihydro-benzo[c][1,2]oxaborol-5-yloxy)-nicotinonitrile] | < 1 µM | < 1 µM | < 1 µM | < 1 µM | < 1 µM | < 1 µM | – | – | – | – | – | –
15 | N#Cc1cnc(Oc2ccc3c(c2)COB3O)cc1OCCOC1CCCCO1 (stereo not shown) [D118, 6-(1-Hydroxy-1,3-dihydro-benzo[c][1,2]oxaborol-5-yloxy)-4-[2-(tetrahydro-pyran-2-yloxy)-ethoxy]-nicotinonitrile] | < 1 µM | < 1 µM | < 1 µM | < 1 µM | 1 to 4 µM | < 1 µM | – | – | – | – | – | –
16 | N#Cc1ccc(Oc2ccc3c(c2)COB3O)c(F)c1 [D84, 3-fluoro-4-(1-hydroxy-1,3-dihydrobenzo[c][1,2]oxaborol-5-yloxy)benzonitrile] | 1 to 4 µM | 1 to 4 µM | 4 to 10 µM | 4 to 10 µM | 1 to 4 µM | < 1 µM | – | – | – | – | – | –
17 | N#Cc1ccc(Oc2ccc3c(c2)COB3O)c(CN)c1 [D26, 5-(2-Aminomethyl-4-cyanophenoxy)-1,3-dihydro-1-hydroxy-2,1-benzoxaborole hydrochloride] | – | 1 to 4 µM | 4 to 10 µM | 4 to 10 µM | > 10 µM | 1 to 4 µM | – | > 10 µM | – | – | – | –
18 | CCOC(=O)c1cc(Cl)c(Oc2ccc3c(c2)COB3O)cc1F [D58, 5-(2-Chloro-5-fluoro-4-ethoxycarbonylphenoxy)-1-hydroxy-2,1-benzoxaborole] | 1 to 4 µM | < 1 µM | < 1 µM | < 1 µM | > 10 µM | < 1 µM | – | – | – | – | – | –
19 | COC(=O)c1ccc(Oc2ccc3c(c2)COB3O)cc1 [D71, 4-(1-Hydroxy-1,3-dihydro-benzo[c][1,2]oxaborol-5-yloxy)-benzoic acid methyl ester] | 1 to 4 µM | 1 to 4 µM | 1 to 4 µM | 4 to 10 µM | > 10 µM | < 1 µM | – | – | – | – | – | –
20 | COc1ccc(C#N)c(Oc2ccc3c(c2)COB3O)n1 [D47, 2-(1-Hydroxy-1,3-dihydro-benzo[c][1,2]oxaborol-5-yloxy)-6-methoxy-nicotinonitrile] | < 1 µM | < 1 µM | < 1 µM | < 1 µM | 1 to 4 µM | < 1 µM | – | – | – | – | – | –
21 | O=C(NCc1ccccn1)c1ccc(Oc2ccc3c(c2)COB3O)cc1 [D78, 4-(1-Hydroxy-1,3-dihydro-benzo[c][1,2]oxaborol-5-yloxy)-N-pyridin-2-ylmethyl-benzamide] | 1 to 4 µM | 1 to 4 µM | 1 to 4 µM | 1 to 4 µM | 1 to 4 µM | < 1 µM | – | – | – | – | – | –
22 | CC(C)(C)OC(=O)COc1cc(Oc2ccc3c(c2)COB3O)ccc1C#N [D40, [2-Cyano-5-(1-hydroxy-1,3-dihydro-benzo[c][1,2]oxaborol-5-yloxy)-phenoxy]-acetic acid tert-butyl ester] | < 1 µM | < 1 µM | < 1 µM | < 1 µM | < 1 µM | < 1 µM | – | – | – | – | – | –
23 | CCN(CC)C(=O)c1ccc(Oc2ccc3c(c2)COB3O)nc1 [D62, N,N-diethyl-6-(1-hydroxy-1,3-dihydrobenzo[c][1,2]-5-yloxy) nicotinamide] | < 1 µM | < 1 µM | < 1 µM | 1 to 4 µM | 1 to 4 µM | 1 to 4 µM | – | – | – | – | – | –
24 | N#Cc1ccc(Oc2ccc3c(c2)COB3O)nc1NCCOCc1ccccc1 [D113, 2-(2-Benzyloxy-ethylamino)-6-(1-hydroxy-1,3-dihydro-benzo[c][1,2]oxaborol-5-yloxy)-nicotinonitrile] | < 1 µM | < 1 µM | < 1 µM | < 1 µM | 4 to 10 µM | < 1 µM | – | – | – | – | – | –
25 | NCc1ccc(Oc2ccc3c(c2)COB3O)cc1 [D59, (4-(1-Hydroxy-1,3-dihydrobenzo[c][1,2]oxaborol-5-yloxy)phenyl) methanaminium chloride] | – | – | – | – | – | > 10 µM | – | – | 30 to 60% | 60 to 90% | 30 to 60% | < 30%
26 | N#Cc1ccc(Oc2ccc3c(c2)COB3O)cc1C(=O)O [D8, 5-(3-Carboxy-4-cyanophenoxy)-1,3-dihydro-1-hydroxy-2,1-benzoxaborole] | > 10 µM | 1 to 4 µM | > 10 µM | > 10 µM | > 10 µM | – | – | – | – | – | – | –
